Laboratory results taken from US4873225A, “1-n-(4-amino-3-fluoro-2-hydroxybutyryl)-kanamycins” (Zaidan Hojin Biseibutsu Kagaku Kenkyu Kai, priority 1987, dated 1989).
Values after ≈ are worked out from the molar mass of the structure shown. Like-named read-outs stand apart in the source and are kept apart here.

Assays:
[1] = system: gram-positive bacteria, gram-negative bacteria and various kanamycin-resistant strains of bacteria; assay: Antibacterial activity in vitro, in words; type: cell-based; details: tested in vitro
Experimental: The present inventors have carried out an extensive investigation in an attempt to produce such novel kanamycin derivatives which are capable of fulfilling such demands. […] The present invention has been completed on the basis of these above findings.
(§1) Antibacterial activities of each of the abovementioned compounds of the general formula (I) according to this invention were determined by measuring their minimum growth inhibitory concentrations (MIC, mcg/ml) against various bacteria in accordance with a standard serial dilution method. The pH condition of the incubation medium where the MIC data were measured was set at pH 7, unless otherwise specifically indicated. For the sake of comparison, the antibacterial spectra of 1-N-{(S)-4-amino-2-hydroxybutyryl}kanamycin A (i.e., amikacin) and 1-N-{(S)-4-amino-2-hydroxybutyryl}-3,4-dideoxykanamycin B (i.e., habekacin) were also measured in the same manner.

[2] = system: gram-positive and gram-negative bacteria, including resistant strains; details: reported in earlier applications, cited from earlier work
[3] = system: Staphylococcus aureus Ap 01; details: reported in earlier applications; cited from earlier work
[4] = system: Staphylococcus epidermidis 109; details: reported in earlier applications; cited from earlier work
[5] = system: Pseudomonas aeruginosa TI 13; assay: MIC, standard serial dilution method; type: cell-based; details: Pseudomonas aeruginosa, read-out: MIC
Experimental: as §1
(§2) (a) The antibacterial activities of the compounds of this invention are not decreased practically even under pH conditions of pH […] as compared to their antibacterial activities under neutral conditions of pH 7.

[6] = system: Escherichia coli JR66/W677; assay: MIC, standard serial dilution method; type: cell-based; details: Escherichia coli, read-out: MIC
Experimental: as §1, §2

Proteus rettgeri GN 311 = assay: MIC, standard serial dilution method; type: cell-based; details: Providencia rettgeri, GN311, pH 7; read-out: MIC
Experimental: as §1

[7] = system: Klebsiella pneumoniae 22 #3038; assay: MIC, standard serial dilution method; type: cell-based; details: pH 7, read-out: MIC
Experimental: as §1

[8] = system: Staphylococcus aureus Ap01; assay: MIC, standard serial dilution method; type: cell-based; details: AP01, pH 7, read-out: MIC
Experimental: as §1

Escherichia coli K-12 = assay: MIC, standard serial dilution method; type: cell-based; details: K12, pH 7
Experimental: as §1

[9] = system: Corynebacterium bovis 1810; assay: MIC, standard serial dilution method; type: cell-based; details: Corynebacterium bovis, 1810, pH 7; read-out: MIC
Experimental: as §1

[10] = system: Escherichia coli K-12 ML 1629; assay: MIC, standard serial dilution method; type: cell-based; details: K12ML1629, pH 7, read-out: MIC
Experimental: as §1

Escherichia coli JR 225 = assay: MIC, standard serial dilution method; type: cell-based; details: JR225, pH 7
Experimental: as §1

Bacillus subtilis PCI219 = assay: MIC, standard serial dilution method; type: cell-based; details: PCI219, pH 7, read-out: MIC
Experimental: as §1

Serratia marcescens = assay: MIC, standard serial dilution method; type: cell-based; details: pH 7, read-out: MIC
Experimental: as §1

[11] = system: Pseudomonas aeruginosa GN 315; assay: MIC, standard serial dilution method; type: cell-based; details: GN315, pH 7
Experimental: as §1

[12] = system: Escherichia coli K-12 LA 290 R55; assay: MIC, standard serial dilution method; type: cell-based; details: K12LA290R55, pH 7
Experimental: as §1

Providencia sp. Pv 16 = assay: MIC, standard serial dilution method; type: cell-based; details: SP.PV16, pH 7, read-out: MIC
Experimental: as §1

Mycobacterium 607 = assay: MIC, standard serial dilution method; type: cell-based; details: Mycobacterium, 607, pH 7; read-out: MIC
Experimental: as §1

[13] = system: Pseudomonas aeruginosa A3; assay: MIC, standard serial dilution method; type: cell-based; details: A3, pH 7, read-out: MIC
Experimental: as §1

[14] = system: Staphylococcus aureus 209P; assay: MIC, standard serial dilution method; type: cell-based; details: pH 7, read-out: MIC
Experimental: as §1

mice = assay: Acute toxicity against mice; type: in vivo; details: orally administered, 150 mg/kg
Escherichia coli K-12 R5 = assay: MIC, standard serial dilution method; type: cell-based; details: K12R5, pH 7
Experimental: as §1
Infectious diseases by Escherichia coli K-12 R5 tend to increase in recent days. The compounds of this invention are therefore important for the therapeutic treatment of bacterial infections.

Row | SMILES | MIC ([5]; TI13, pH 7) [µg/mL] | MIC ([5]; TI13, measured at pH 6) [µg/mL] | MIC ([6]; JR66/W677, pH 7) [µg/mL] | MIC ([6]; JR66/W677, measured at pH 6) [µg/mL] | MIC (Proteus rettgeri GN 311) [µg/mL] | MIC [7] [µg/mL] | MIC [8] [µg/mL] | MIC (Escherichia coli K-12) [µg/mL] | MIC [9] [µg/mL] | MIC [10] [µg/mL] | MIC (Escherichia coli JR 225) [µg/mL] | MIC (Bacillus subtilis PCI219) [µg/mL] | MIC (Serratia marcescens) [µg/mL] | MIC [11] [µg/mL] | MIC [12] [µg/mL] | MIC (Providencia sp. Pv 16) [µg/mL] | MIC (Mycobacterium 607) [µg/mL] | MIC [13] [µg/mL] | MIC [14] [µg/mL] | MIC (Escherichia coli K-12 R5) [µg/mL] | other results
1 | NC[C@H](F)[C@H](O)C(=O)N[C@@H]1C[C@H](N)[C@@H](O[C@H]2O[C@H](CN)[C@@H](O)[C@H](O)[C@H]2N)[C@H](O)[C@H]1O[C@H]1O[C@H](CO)[C@@H](O)[C@H](N)[C@H]1O [1-N-{(2R,3S)-4-amino-3-fluoro-2-hydroxybutyryl}kanamycin B] | – | – | – | – | – | – | – | – | – | – | – | – | – | – | – | – | – | – | – | – | enhancement in antibacterial activities [1]: did not show any enhancement in antibacterial activities
2 | NC[C@H]1O[C@H](O[C@H]2[C@H](O)[C@@H](O[C@H]3O[C@H](CO)[C@@H](O)[C@H](N)[C@H]3O)[C@H](N)C[C@@H]2N)[C@H](F)C[C@@H]1O [2',3'-dideoxy-2'-fluorokanamycin A] | – | – | – | – | – | – | – | – | – | – | – | – | – | – | – | – | – | – | – | – | antibacterial activities (in words) [2]: antibacterial activities against gram-positive and gram-negative bacteria, including certain resistant strains of bacteria
3 | NC[C@@H]1C[C@H](F)[C@@H](N)[C@@H](O[C@H]2[C@H](O)[C@@H](O[C@H]3O[C@H](CO)[C@@H](O)[C@H](N)[C@H]3O)[C@H](N)C[C@@H]2N)O1 [3',4'-dideoxy-3'-fluorokanamycin B] | – | – | – | – | – | – | – | – | – | – | – | – | – | – | – | – | – | – | – | – | effective against resistant strain [3]: effective against such certain resistant strains of bacteria; effective against resistant strain [4]: effective against such certain resistant strains of bacteria
4 | NC[C@H]1O[C@H](O[C@H]2[C@H](O)[C@@H](O[C@H]3O[C@H](CO)[C@@H](O)[C@H](N)[C@H]3O)[C@H](N)C[C@@H]2N)[C@H](O)[C@@H](F)[C@@H]1O [3'-deoxy-3'-fluorokanamycin A] | – | – | – | – | – | – | – | – | – | – | – | – | – | – | – | – | – | – | – | – | antibacterial activities (in words) [2]: effective also against kanamycin-resistant bacteria
5 | NC[C@H]1O[C@H](O[C@H]2[C@H](O)[C@@H](O[C@H]3O[C@H](CO)[C@@H](O)[C@H](N)[C@H]3O)[C@H](N)C[C@@H]2N)[C@H](N)[C@@H](F)[C@@H]1O [3'-deoxy-3'-fluorokanamycin B] | – | – | – | – | – | – | – | – | – | – | – | – | – | – | – | – | – | – | – | – | antibacterial activities (in words) [2]: antibacterial activities against various gram-positive and gram-negative bacteria, including resistant strains
6 | NC[C@H]1O[C@H](O[C@H]2[C@H](F)[C@@H](O[C@H]3O[C@H](CO)[C@@H](O)[C@H](N)[C@H]3O)[C@H](N)C[C@@H]2N)[C@H](N)[C@@H](O)[C@@H]1O [5-deoxy-5-fluorokanamycin B] | – | – | – | – | – | – | – | – | – | – | – | – | – | – | – | – | – | – | – | – | antibacterial activities relative to kanamycin B ([2]; over kanamycin B): enhanced or improved advantageously over kanamycin B
7 | NC[C@@H](F)[C@H](O)C(=O)N[C@@H]1C[C@H](N)[C@@H](O[C@@H]2CC[C@H](O)[C@@H](CN)O2)[C@H](O)[C@H]1O[C@H]1O[C@H](CO)[C@@H](O)[C@H](N)[C@H]1O [Invention Compound No. 2, 1-N-{(2R,3R)-4-Amino-3-fluoro-2-hydroxybutyryl}-2',3'-dideoxykanamycin A] | 3.12 (≈ 5.46 µM) | 3.12 (≈ 5.46 µM) | 1.56 (≈ 2.73 µM) | 6.25 (≈ 10.9 µM) | 0.78 (≈ 1.36 µM) | 3.12 (≈ 5.46 µM) | 1.56 (≈ 2.73 µM) | 0.39 (≈ 0.682 µM) | 0.78 (≈ 1.36 µM) | 0.78 (≈ 1.36 µM) | 0.39 (≈ 0.682 µM) | 0.78 (≈ 1.36 µM) | 3.12 (≈ 5.46 µM) | 12.5 (≈ 21.9 µM) | 0.78 (≈ 1.36 µM) | 1.56 (≈ 2.73 µM) | 1.56 (≈ 2.73 µM) | 0.78 (≈ 1.36 µM) | 0.2 (≈ 0.35 µM) | 6.25 (≈ 10.9 µM) | survival of mice (mice): all mice surrived
8 | NC[C@@H](F)[C@H](O)C(=O)N[C@@H]1C[C@H](N)[C@@H](O[C@H]2O[C@H](CN)[C@@H](O)[C@H](O)[C@H]2N)[C@H](F)[C@H]1O[C@H]1O[C@H](CO)[C@@H](O)[C@H](N)[C@H]1O [Invention Compound No. 8, 1-N-{(2R,3R)-4-Amino-3-fluoro-2-hydroxybutyryl}-5-deoxy-5-fluorokanamycin B] | 1.56 (≈ 2.58 µM) | 6.25 (≈ 10.3 µM) | 0.78 (≈ 1.29 µM) | 3.12 (≈ 5.16 µM) | 0.2 (≈ 0.331 µM) | 3.12 (≈ 5.16 µM) | 6.25 (≈ 10.3 µM) | < 0.2 | 0.39 (≈ 0.645 µM) | 0.78 (≈ 1.29 µM) | 0.2 (≈ 0.331 µM) | 0.39 (≈ 0.645 µM) | 1.56 (≈ 2.58 µM) | 6.25 (≈ 10.3 µM) | 0.39 (≈ 0.645 µM) | 0.78 (≈ 1.29 µM) | 12.5 (≈ 20.7 µM) | 0.39 (≈ 0.645 µM) | 0.39 (≈ 0.645 µM) | 3.12 (≈ 5.16 µM) | –
9 | NC[C@@H](F)[C@H](O)C(=O)N[C@@H]1C[C@H](N)[C@@H](O[C@H]2O[C@H](CN)[C@@H](O)C[C@H]2N)[C@H](F)[C@H]1O[C@H]1O[C@H](CO)[C@@H](O)[C@H](N)[C@H]1O [Invention Compound No. 9, 1-N-{(2R,3R)-4-Amino-3-fluoro-2-hydroxybutyryl}-5,3'-dideoxy-5-fluorokanamycin B] | 0.78 (≈ 1.33 µM) | 3.12 (≈ 5.3 µM) | 0.39 (≈ 0.663 µM) | 1.56 (≈ 2.65 µM) | 0.2 (≈ 0.34 µM) | 0.78 (≈ 1.33 µM) | 0.78 (≈ 1.33 µM) | < 0.2 | < 0.2 | 0.78 (≈ 1.33 µM) | 0.2 (≈ 0.34 µM) | < 0.2 | 3.12 (≈ 5.3 µM) | 3.12 (≈ 5.3 µM) | 0.39 (≈ 0.663 µM) | 0.78 (≈ 1.33 µM) | 1.56 (≈ 2.65 µM) | 0.2 (≈ 0.34 µM) | 0.39 (≈ 0.663 µM) | 3.12 (≈ 5.3 µM) | –
10 | NC[C@@H]1CC[C@@H](N)[C@@H](O[C@H]2[C@H](F)[C@@H](O[C@H]3O[C@H](CO)[C@@H](O)[C@H](N)[C@H]3O)[C@H](NC(=O)[C@@H](O)[C@H](F)CN)C[C@@H]2N)O1 [Invention Compound No. 10, 1-N-{(2R,3R)-4-Amino-3-fluoro-2-hydroxybutyryl}-5,3',4'-trideoxy-5-fluorokanamycin B] | 0.78 (≈ 1.36 µM) | 3.12 (≈ 5.45 µM) | 0.39 (≈ 0.681 µM) | 1.56 (≈ 2.72 µM) | < 0.2 | 0.78 (≈ 1.36 µM) | 0.78 (≈ 1.36 µM) | 0.2 (≈ 0.349 µM) | < 0.2 | 0.39 (≈ 0.681 µM) | < 0.2 | 0.2 (≈ 0.349 µM) | 1.56 (≈ 2.72 µM) | 3.12 (≈ 5.45 µM) | 0.39 (≈ 0.681 µM) | 0.78 (≈ 1.36 µM) | 0.78 (≈ 1.36 µM) | < 0.2 | 0.39 (≈ 0.681 µM) | 3.12 (≈ 5.45 µM) | –
11 | NC[C@@H](F)[C@H](O)C(=O)N[C@@H]1C[C@H](N)[C@@H](O[C@H]2O[C@H](CN)[C@@H](O)[C@H](O)[C@H]2O)[C@H](O)[C@H]1O[C@H]1O[C@H](CO)[C@@H](O)[C@H](N)[C@H]1O [Invention Compound Nos. 1] | – | – | – | – | – | – | – | – | – | – | – | – | – | – | – | – | – | – | – | – | survival of mice (mice): all mice surrived
